Article PMC3390782 (Angewandte Chemie (International Ed. in English), 2012)
In brackets after ≈: the same amount, converted by molar mass.

Experiments:
[1] = system: S. epidermidis AJCCM228; assay: MIC, antibacterial activity; format: cell-based
[2] = system: S. aureus NorA; assay: MIC, antibacterial activity; format: cell-based
[3] = system: MRSA; assay: MIC, antibacterial activity; format: cell-based, Staphylococcus aureus; details: strain C, Gram-positive
[4] = system: S. pyogenes serotype M12 (strain MGAS9429); assay: MIC, antibacterial activity; format: cell-based
[5] = system: S. mutans UA159; assay: MIC, antibacterial activity; format: cell-based
[6] = system: B. subtilis 168; assay: MIC, antibacterial activity; format: cell-based; details: strain F, Gram-positive
[7] = system: B. subtilis 168 with AAC(6')/APH(2”)-pRB374; assay: MIC, antibacterial activity; format: cell-based; details: strain G, Gram-positive
[8] = system: B. cereus ATCC11778; assay: MIC, antibacterial activity; format: cell-based; details: strain H, Gram-positive
[9] = system: B. anthracis 34F2 Sterne strain; format: cell-based; details: strain I, Gram-positive
[10] = system: VRE; assay: MIC, antibacterial activity; format: cell-based, Enterococcus; details: strain J, Gram-positive
[11] = system: E. faecalis ATCC29212; assay: MIC, antibacterial activity; format: cell-based
[12] = system: L. monocyfogenes ATCC19115; assay: MIC, antibacterial activity; format: cell-based, L. monocytogenes; details: strain L, Gram-positive
[13] = system: E. coli BL21 (DE3); assay: MIC, antibacterial activity; format: cell-based
[14] = system: E coli BL21 (DE3) with pET22b; assay: MIC, antibacterial activity; format: cell-based
[15] = system: E. coli BL21 (DE3) with AAC(6')/APH(2”)-pET22b; assay: MIC, antibacterial activity; format: cell-based
[16] = system: E. coli BL21 (DE3) with AAC(3)-IV-lnt-pET19b-pps; assay: MIC, antibacterial activity; format: cell-based
[17] = system: E. coli BL21 (DE3) with Eis; assay: MIC, antibacterial activity; format: cell-based
[18] = system: E. coli TolC; assay: MIC, antibacterial activity; format: cell-based
[19] = system: E. coli MC1061; assay: MIC, antibacterial activity; format: cell-based
[20] = system: Shigella clinical isolate 6831; assay: MIC, antibacterial activity; format: cell-based
[21] = system: S. enterica ATCC14028; assay: MIC, antibacterial activity; format: cell-based; details: strain U, Gram-negative
[22] = system: S. mutans UA159; assay: Time of kill assay; format: cell-based; details: at MIC (4e 2.3 μg/mL, TOB 75 μg/mL); after 5 hours of incubation
[23] = system: S. pyogenes; assay: Time of kill assay; format: cell-based; details: at MIC (4e 2.3 μg/mL, TOB 18.8 μg/mL); after 3 hours of incubation
[24] = system: B. subtilis with constitutive YFP expression (PY79); assay: Fluorescence microscopy of YFP-expressing bacteria; format: cell-based
[25] = system: rat RBCs; assay: Hemolysis assay; details: 1 h at 37 °C
[26] = system: human RBCs; assay: Hemolysis assay; details: 1 h at 37 °C
[27] = system: luciferase translation in lysates of E. coli; details: read-out: IC50, inhibition of luciferase translation; cited from earlier work

Compound	MIC ([2]; strain B, Gram-positive) [µg/mL]	MIC [3] [µg/mL]	MIC ([4]; strain D, Gram-positive) [µg/mL]	MIC ([5]; strain E, Gram-positive) [µg/mL]	MIC [6] [µg/mL]	MIC [7] [µg/mL]	MIC [8] [µg/mL]	MIC [9] [µg/mL]	MIC [10] [µg/mL]	MIC ([11]; strain K, Gram-positive) [µg/mL]	MIC [12] [µg/mL]	MIC ([13]; strain M, Gram-negative) [µg/mL]	MIC ([14]; strain N, Gram-negative) [µg/mL]	MIC ([15]; strain O, Gram-negative) [µg/mL]	MIC ([16]; strain P, Gram-negative) [µg/mL]	MIC ([17]; strain Q, Gram-negative) [µg/mL]	MIC ([18]; strain R, Gram-negative) [µg/mL]	MIC ([19]; strain S, Gram-negative) [µg/mL]	MIC [21] [µg/mL]	other results
CCCCCCCCSCC1OC(OC2C(N)CC(N)C(OC3OC(CN)C(O)CC3N)C2O)C(O)C(N)C1O (stereo not drawn) [4b]	150 (≈ 252 µM)	>150	150 (≈ 252 µM)	150 (≈ 252 µM)	37.5 (≈ 62.9 µM)	>150	150 (≈ 252 µM)	75 (≈ 126 µM)	>150	>150	>150	>150	>150	>150	>150	>150	9.4 (≈ 15.8 µM)	75 (≈ 126 µM)	>150	MIC ([1]; strain A, Gram-positive): 75 µg/mL (≈ 126 µM); MIC ([20]; strain T, Gram-negative): >150 µg/mL
CCCCCCCCCCSCC1OC(OC2C(N)CC(N)C(OC3OC(CN)C(O)CC3N)C2O)C(O)C(N)C1O (stereo not drawn) [4c]	37.5 (≈ 60.1 µM)	75 (≈ 120 µM)	–	–	37.5 (≈ 60.1 µM)	–	18.8 (≈ 30.1 µM)	–	–	–	37.5 (≈ 60.1 µM)	75 (≈ 120 µM)	–	–	–	–	–	–	–	–
CCCCCCCCCCCCSCC1OC(OC2C(N)CC(N)C(OC3OC(CN)C(O)CC3N)C2O)C(O)C(N)C1O (stereo not drawn) [4d]	–	37.5 (≈ 57.5 µM)	–	–	–	–	–	–	–	–	18.8 (≈ 28.8 µM)	18.8 (≈ 28.8 µM)	–	–	–	–	–	18.8 (≈ 28.8 µM)	–	–
CCCCCCCCCCCCCCSC[C@H]1O[C@H](O[C@@H]2[C@@H](O)[C@H](O[C@H]3O[C@H](CN)[C@@H](O)C[C@H]3N)[C@@H](N)C[C@H]2N)[C@H](O)[C@@H](N)[C@@H]1O [4e]	9.4 (≈ 13.8 µM)	9.4 (≈ 13.8 µM)	2.3 (≈ 3.38 µM)	2.3 (≈ 3.38 µM)	–	4.7 (≈ 6.91 µM)	–	0.3 (≈ 0.441 µM)	18.8 (≈ 27.6 µM)	75 (≈ 110 µM)	9.4 (≈ 13.8 µM)	4.7 (≈ 6.91 µM)	4.7 (≈ 6.91 µM)	4.7 (≈ 6.91 µM)	2.3 (≈ 3.38 µM)	4.7 (≈ 6.91 µM)	4.7 (≈ 6.91 µM)	4.7 (≈ 6.91 µM)	37.5 (≈ 55.1 µM)	Time of kill: viable bacteria after incubation [22]: no viable bacteria remained; Time of kill: viable bacteria after incubation [23]: no viable bacteria remained; Cell viability / YFP fluorescence by microscopy [24]: a significant drop in fluorescence; hemolysis of rat RBCs ([25]; 18.8 μg/mL): 19.5 ± 0.3%; hemolysis of human RBCs ([26]; 18.8 μg/mL): 14.3 ± 1.7%
CCCCCCCCCCCCS(=O)(=O)CC1OC(OC2C(N)CC(N)C(OC3OC(CN)C(O)CC3N)C2O)C(O)C(N)C1O (stereo not drawn) [6d]	37.5 (≈ 54.8 µM)	75 (≈ 110 µM)	18.8 (≈ 27.5 µM)	9.4 (≈ 13.7 µM)	4.7 (≈ 6.87 µM)	>150	9.4 (≈ 13.7 µM)	2.3 (≈ 3.36 µM)	75 (≈ 110 µM)	9.4 (≈ 13.7 µM)	9.4 (≈ 13.7 µM)	75 (≈ 110 µM)	>150	>150	>150	>150	2.3 (≈ 3.36 µM)	18.8 (≈ 27.5 µM)	>150	MIC ([1]; strain A, Gram-positive): 9.4 µg/mL (≈ 13.7 µM); MIC ([20]; strain T, Gram-negative): >150 µg/mL
CCCCCCCCCCCCCCS(=O)(=O)CC1OC(OC2C(N)CC(N)C(OC3OC(CN)C(O)CC3N)C2O)C(O)C(N)C1O (stereo not drawn) [6e]	18.8 (≈ 26.4 µM)	18.8 (≈ 26.4 µM)	–	–	–	–	–	–	37.5 (≈ 52.7 µM)	–	–	18.8 (≈ 26.4 µM)	–	–	–	–	–	–	–	–
NC[C@H]1O[C@H](O[C@H]2[C@H](O)[C@@H](O[C@H]3O[C@H](CO)[C@@H](O)[C@H](N)[C@H]3O)[C@H](N)C[C@@H]2N)[C@H](N)C[C@@H]1O [TOB, tobramycin, reference compound]	–	–	–	–	–	–	–	–	–	–	–	–	–	>150	–	–	–	–	–	MIC ([1]; Staphylococcus epidermidis, AJCCM228): 0.3 µg/mL (≈ 0.642 µM); MIC ([2]; Staphylococcus aureus): 9.4 µg/mL (≈ 20.1 µM); MIC ([3]; Staphylococcus aureus, MRSA): ≥ 150 µg/mL; MIC ([4]; Streptococcus pyogenes): 18.8 µg/mL (≈ 40.2 µM); MIC ([5]; Streptococcus mutans, UA159): 75 µg/mL (≈ 160 µM); MIC ([10]; Enterococcus, VRE): ≥ 150 µg/mL; MIC ([11]; Enterococcus faecalis, ATCC29212): 150 µg/mL (≈ 321 µM); MIC ([13]; Escherichia coli): 4.7 µg/mL (≈ 10.1 µM); MIC ([14]; Escherichia coli): 9.4 µg/mL (≈ 20.1 µM); MIC ([15]; Escherichia coli): > 150 µg/mL; MIC ([16]; Escherichia coli): 150 µg/mL (≈ 321 µM); MIC ([17]; Escherichia coli): 18.8 µg/mL (≈ 40.2 µM); MIC ([18]; Escherichia coli): 4.7 µg/mL (≈ 10.1 µM); MIC ([19]; Escherichia coli, MC1061): 9.4 µg/mL (≈ 20.1 µM); MIC ([20]; Shigella): 18.8 µg/mL (≈ 40.2 µM); Time of kill: viable bacteria after incubation [22]: almost no reduction in bacterial growth; Time of kill: viable bacteria after incubation [23]: almost no reduction in bacterial growth; IC50 [27]: ~20 nM; hemolysis of rat RBCs ([25]; 75 μg/mL): no measurable hemolysis; hemolysis of human RBCs ([26]; 75 μg/mL): no measurable hemolysis
